In PubChem BioAssay AID294 (DTP/NCI, 2004) one finds T/C data, which are given here for 29 molecules.

Several values for one entry are separate records, joined by “and”; a condition that tells them apart may be missing. Identical values can stand only once.

This experiment deals with MX-1 breast xenograft, nude mice, tumor weight change. Nature of the experiment: NCI In Vivo Anticancer Drug Screen. Data for tumor model Human Mammary Carcinoma MX-1 Xenograft (subcutaneous) in NU/NU Swiss (nude) mice. Particulars: endpoint: optimum tumor weight change, higher = larger tumour. On the procedure:
The antitumor activity of compounds was measured in mice bearing transplantable tumors. Survival or tumor size were measured and the results are expressed as the measurement made in the treated group (T) divided by the measurement made in the vehicle treated control group (C). The tumor model used in this assay is Human Mammary Carcinoma MX-1 Xenograft (subcutaneous) in NU/NU Swiss (nude) mice
In general terms: A xenograft is tissue or cells of one species grown in another, often human tumour cells in immunodeficient mice.

The mark [1] stands for this setting: dose: 12.5 mg/kg/injection, schedule: Q04DX003 (ip), vehicle: saline with Tween-80.
The mark [2] stands for this setting: dose: 400.0 mg/kg/injection, schedule: Q04DX003 (ip), vehicle: saline.
[3] abbreviates: dose: 50.0 mg/kg/injection, schedule: Q04DX003 (ip), vehicle: saline with Tween-80.
Setting [4] is: dose: 400.0 mg/kg/injection, schedule: Q04DX003 (ip), vehicle: saline with Tween-80.
The mark [5] stands for this setting: dose: 1.0 mg/kg/injection, schedule: Q04DX003 (ip), vehicle: saline.
Setting [6] is: dose: 400.0 mg/kg/injection, schedule: Q04DX003 (ip), vehicle: suspension in saline.
Setting [7] is: dose: 800.0 mg/kg/injection, schedule: Q04DX003 (ip), vehicle: suspension in saline.
Setting [8] is: dose: 50.0 mg/kg/injection, schedule: Q04DX003 (ip), vehicle: saline.
The mark [9] stands for this setting: dose: 200.0 mg/kg/injection, schedule: Q04DX003 (ip), vehicle: saline.
The mark [10] stands for this setting: dose: 100.0 mg/kg/injection, schedule: Q04DX003 (ip), vehicle: saline with Tween-80.
The mark [11] stands for this setting: dose: 100.0 mg/kg/injection, schedule: Q04DX003 (ip), vehicle: suspension in saline.
The mark [12] stands for this setting: dose: 200.0 mg/kg/injection, schedule: Q04DX003 (ip), vehicle: suspension in saline.

On to `Cc1cc(N(CC(C)Br)CC(C)Br)ccc1N=Nc1ccccc1C(=O)O` (stereo not drawn), for which the T/C (dose: 3.13 mg/kg/injection, schedule: Q04DX003 (ip), vehicle: saline with Tween-80) was 75 % of control; the T/C (dose: 6.25 mg/kg/injection, schedule: Q04DX003 (ip), vehicle: saline with Tween-80) is 73 % of control; the T/C under setting [1] is 61 % of control.

For `O=C[C@@H](CO)O[C@H](C=O)n1cnc2c(=O)[nH]cnc21`, the T/C under setting [2] was 29 % of control.

Consider `O=Cc1ccc(O)c(O)c1`, for which the T/C is 63 % of control under setting [3] and 89 % of control under setting [4].

Take `COc1cccc2c1C(=O)c1c(O)c3c(c(O)c1C2=O)C[C@@](O)(C(C)=O)C[C@@H]3OC1CC(N)C(O)C(C)O1` (stereo partly drawn): under setting [5], the T/C was 72 % of control.

Consider `O=c1[nH]cnc2n[nH]nc12`, for which the T/C (dose: 400.0 mg/kg/injection, schedule: Q04DX003 (ip), vehicle: Klucel (hydroxypropylcellulose) (HPC)) was 99 % of control.

On to `CN(C)C=O`, for which the T/C is, setting by setting: under setting [6], 44 % of control; under setting [7], 53 % of control; (dose: 1600.0 mg/kg/injection, schedule: Q04DX003 (ip), vehicle: suspension in saline) 57 % of control.

Turning to `N=C(N)Sc1ccccn1`, the T/C under setting [8] is 106 % of control; the T/C (dose: 100.0 mg/kg/injection, schedule: Q04DX003 (ip), vehicle: saline) was 77 % of control; the T/C under setting [9] was 60 % of control.

With `CC1OC(OC2CC(O)(C(=O)CO)Cc3c(O)c4c(c(O)c32)C(=O)c2ccccc2C4=O)CC(N)C1O` (stereo not drawn), the T/C reads like this: (dose: 0.25 mg/kg/injection, schedule: Q04DX003 (ip), vehicle: water) 104 % of control; (dose: 0.5 mg/kg/injection, schedule: Q04DX003 (ip), vehicle: water) 104 % of control.

For the molecule `NC(=O)c1ccc[n+](Cc2c(Cl)cccc2Cl)c1`, the T/C was 169 % of control (dose: 3.0 mg/kg/injection, schedule: Q04DX003 (ip), vehicle: saline); 111 % of control and 112 % of control (dose: 24.0 mg/kg/injection, schedule: Q04DX003 (ip), vehicle: saline); 100 % of control (dose: 96.0 mg/kg/injection, schedule: Q04DX003 (ip), vehicle: saline).

Consider `OC(C1CO1)C(O)C1CO1` (stereo not drawn), for which, under setting [5], the T/C is 70 % of control.

Consider `COc1cc([C@@H]2c3cc4c(c(O)c3C[C@H]3COC(=O)[C@@H]32)OCO4)cc(OC)c1O`, for which the T/C reads like this: (dose: 3.13 mg/kg/injection, schedule: Q04DX003 (ip), vehicle: saline) 92 % of control; (dose: 6.25 mg/kg/injection, schedule: Q04DX003 (ip), vehicle: saline) 57 % of control.

As to `CC1CCC(NC(=O)N(CCCl)N=O)CC1` (stereo not drawn), the T/C (dose: 25.0 mg/kg/injection, schedule: Q04DX003 (ip), vehicle: Klucel (hydroxypropylcellulose) (HPC)) is 50 % of control.

Take `CC(C)CCCCCCCCCCCCC(=O)NCC(=O)NC1C(C)OC(Nc2ncnc3nc[nH]c23)C(O)C1O` (stereo not drawn): for the setting “dose: 3.13 mg/kg/injection, schedule: Q04DX003 (ip), vehicle: distilled water + Tween-80”, the T/C is 102 % of control.

As to `N/C(=N\O)c1cn(C2OC(CO)C(O)C2O)c2ncnc(N)c12` (stereo not drawn), the T/C is 109 % of control (dose: 5.0 mg/kg/injection, schedule: Q04DX003 (ip), vehicle: Klucel (hydroxypropylcellulose) (HPC)); 80 % of control (dose: 10.0 mg/kg/injection, schedule: Q04DX003 (ip), vehicle: Klucel (hydroxypropylcellulose) (HPC)); 82 % of control (dose: 20.0 mg/kg/injection, schedule: Q04DX003 (ip), vehicle: Klucel (hydroxypropylcellulose) (HPC)).

Consider `O=C/C(Cl)=C(/Cl)C(=O)O`, for which the T/C under setting [1] was 96 % of control.

Consider `O=C(NO)c1ccccc1`, for which the T/C is 82 % of control (dose: 25.0 mg/kg/injection, schedule: Q01DX003 (ip), vehicle: saline); 108 % of control (dose: 50.0 mg/kg/injection, schedule: Q01DX003 (ip), vehicle: saline); 42 % of control (dose: 100.0 mg/kg/injection, schedule: Q01DX003 (ip), vehicle: saline).

Regarding `Nc1ccc(Cl)cc1N`, the T/C by setting is: under setting [4], 109 % of control; (dose: 800.0 mg/kg/injection, schedule: Q04DX003 (ip), vehicle: saline with Tween-80) 110 % of control; (dose: 1600.0 mg/kg/injection, schedule: Q04DX003 (ip), vehicle: saline with Tween-80) 117 % of control; (dose: 3200.0 mg/kg/injection, schedule: Q04DX003 (ip), vehicle: saline with Tween-80) 80 % of control.

`CC(=O)OCC1OC(n2cc(CBr)nn2)C(OC(C)=O)C(OC(C)=O)C1OC(C)=O` (stereo not drawn): the T/C runs as follows: (dose: 25.0 mg/kg/injection, schedule: Q04DX003 (ip), vehicle: saline with Tween-80) 119 % of control; under setting [3], 150 % of control; under setting [10], 57 % of control.

On to `Cc1c(N)nc(C(CC(N)=O)NCC(N)C(N)=O)nc1C(=O)NC(C(=O)NC(C)C(O)CC(=O)NC(C(=O)NC(OC1OC(C)C(N)C(O)C1O)C(O)c1nc(-c2nc(C(=O)NCCCC(N)CC(=O)NCCCNCCCCN)cs2)cs1)C(C)O)C(OC1OC(CO)C(O)C(O)C1OC1OC(CO)C(O)C(OC(N)=O)C1O)c1cnc[nH]1` (stereo not drawn), for which the T/C was 28 % of control (dose: 4.0 mg/kg/injection, schedule: Q04DX003 (ip), vehicle: saline) and 11 % of control (dose: 8.0 mg/kg/injection, schedule: Q04DX003 (ip), vehicle: saline).

For `O=C1N(Cl)C(=O)C(c2ccc(Cl)cc2)(c2ccc(Cl)cc2)N1Cl`, the T/C under setting [10] is 98 % of control.

Regarding `CN(CO)c1nc(N(C)CO)nc(N(C)CO)n1`, the T/C is 3 % of control and 16 % of control (dose: 25.0 mg/kg/injection, schedule: Q01DX005 (ip), vehicle: saline); 45 % of control and 58 % of control (dose: 25.0 mg/kg/injection, schedule: Q04DX005 (ip), vehicle: saline); -7 % of control and 4 % of control (dose: 50.0 mg/kg/injection, schedule: Q01DX005 (ip), vehicle: saline); -97 % of control and -91 % of control (dose: 100.0 mg/kg/injection, schedule: Q01DX005 (ip), vehicle: saline); 24 % of control and 28 % of control (dose: 100.0 mg/kg/injection, schedule: Q07DX005 (ip), vehicle: saline); -94 % of control (dose: 200.0 mg/kg/injection, schedule: Q01DX005 (ip), vehicle: saline). The T/C was -87 % of control and -82 % of control (dose: 200.0 mg/kg/injection, schedule: Q04DX005 (ip), vehicle: saline); -96 % of control (dose: 200.0 mg/kg/injection, schedule: Q07DX005 (ip), vehicle: saline).

`CN1N=C(N)c2cn(C3OC(COP(=O)(O)O)C(O)C3O)c3ncnc1c23` (stereo not drawn): the T/C (dose: 25.0 mg/kg/injection, schedule: Q04DX003 (ip), vehicle: water) was 102 % of control.

In the case of `C1OC1CN1CCN(CC2CO2)CC1` (stereo not drawn), the T/C reads like this: (dose: 12.5 mg/kg/injection, schedule: Q04DX003 (ip), vehicle: saline) 91 % of control; (dose: 25.0 mg/kg/injection, schedule: Q04DX003 (ip), vehicle: saline) 79 % of control.

Regarding `O=C(O)CP(=O)(O)O`, the T/C was 87 % of control under setting [9]; 69 % of control under setting [2]; 48 % of control (dose: 800.0 mg/kg/injection, schedule: Q04DX003 (ip), vehicle: saline); 50 % of control (dose: 1600.0 mg/kg/injection, schedule: Q04DX003 (ip), vehicle: saline).

Consider `C=CC(=O)NCNC(=O)C=C`, for which the T/C is 101 % of control under setting [11] and 84 % of control under setting [12].

Consider `CSc1cc(=O)n2c3ccccc3c3ccnc1c32`, for which the T/C (dose: 10.0 mg/kg/injection, schedule: Q04DX003 (ip), vehicle: saline with Tween-80) is 61 % of control; the T/C (dose: 20.0 mg/kg/injection, schedule: Q04DX003 (ip), vehicle: saline with Tween-80) was 50 % of control and 67 % of control; the T/C (dose: 80.0 mg/kg/injection, schedule: Q04DX003 (ip), vehicle: saline with Tween-80) was 27 % of control.

For the molecule `CN1CCN(CCCN2c3ccccc3Sc3ccc(C(F)(F)F)cc32)CC1`, the T/C under setting [8] was 58 % of control.

Turning to `CC(=O)OCC1OC(n2ccc(N)nc2=O)C(OC(C)=O)C1OC(C)=O` (stereo not drawn), the T/C reads like this: under setting [11], 60 % of control; under setting [12], 62 % of control; under setting [6], 39 % of control; under setting [7], 39 % of control.

Consider `Nc1nc(N)c2cc(CNc3ccc(C(=O)NC(CC(=O)O)CC(=O)O)cc3)ccc2n1`, for which the T/C (dose: 50.0 mg/kg/injection, schedule: Q04DX003 (ip), vehicle: Klucel (hydroxypropylcellulose) (HPC)) was 75 % of control and the T/C (dose: 100.0 mg/kg/injection, schedule: Q04DX003 (ip), vehicle: Klucel (hydroxypropylcellulose) (HPC)) is 49 % of control.
